30 molecules from US8106055B2, “Substituted amide compounds” (Gruenenthal GmbH, priority 2007, dated 2012) can be followed below.

Test [1] addresses T1, human μ opiate receptor (Homo sapiens, UniProt P35372).
T1 construct: purchased PerkinElmer Life Sciences, Zaventem, Belgium RB-HOM; host or cells: CHO-K1 cells (membrane preparation)
The test can be described thus: Affinity for the human μ opiate receptor ([3H]-naloxone displacement, CHO-K1 receptor membrane preparation, SPA). The format is binding. The method in brief:
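Scintillation proximity binding on human μ receptor membranes from CHO-K1 cells used 1 nmol/l [3H]-naloxone over 90 min at room temperature in 50 mmol/l Tris-HCl, 0.06% BSA. Percent inhibition was recorded at 1 μM.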

Test [2] has as its target T2, serotonin (5-HT) reuptake (Rattus norvegicus, UniProt P31652).
T2 construct: synaptosomes are freshly isolated from areas of the rat brain; from tissue; host or cells: rat brain synaptosomes (P2 fraction)
Nature of the test: Inhibition of serotonin (5HT) reuptake in synaptosomes from rat brain. In kind it is biochemical. The method, then: Binding data of the compounds on the μ opioid receptor and data on the inhibition of reuptake of serotonin (5-HT) are given in Table 1. The data for the μ receptor were measured at a test concentration of 1 μM, and those for the serotonin reuptake at 10 μM. The values are stated in % inhibition.
Inhibition of Serotonin (5HT) Reuptake
In order to be able to carry out these in vitro studies, synaptosomes are freshly isolated from areas of the rat brain. In each case a so-called “P2” fraction prepared in accordance with the instructions of Gray and Whittaker (E. G. Gray and V. P. Whittaker (1962) J. Anat. 76, 79-88) is prepared. For the NA uptake, these vesicular particles are isolated from the hypothalamus of male rat brains.
A detailed description of the method can be found in the literature (M. Ch. Frink, H.-H. Hennies, W. Englberger, M. Haurand and B. Wilffert (1996) Arzneim.-Forsch./Drug Res. 46 (III), 11, 1029-1036).

The target in test [3] is T3, human bradykinin 1 receptor (B1R) (Homo sapiens, UniProt P46663).
T3 construct: expressed in transfected cells; host or cells: CHO K1 cells
T3 sequence (P46663 1-353): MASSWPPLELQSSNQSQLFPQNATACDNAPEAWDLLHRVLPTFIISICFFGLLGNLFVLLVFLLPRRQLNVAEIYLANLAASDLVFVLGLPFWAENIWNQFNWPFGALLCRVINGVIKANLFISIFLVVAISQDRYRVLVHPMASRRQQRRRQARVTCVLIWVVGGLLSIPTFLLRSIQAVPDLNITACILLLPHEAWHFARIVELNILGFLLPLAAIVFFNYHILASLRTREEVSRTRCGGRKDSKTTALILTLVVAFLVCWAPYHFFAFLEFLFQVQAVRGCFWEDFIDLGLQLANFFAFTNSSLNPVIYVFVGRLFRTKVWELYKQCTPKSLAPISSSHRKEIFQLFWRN
The test can be described thus: Functional investigation on the human bradykinin 1 receptor (B1R), Ca2+ FLIPR assay in CHO K1 hB1R cells. The note with it: test substance 10 μM, Ca2+ FLIPR, CHO K1 hB1R cells; for inhibition at 10 µM: CHO-K1, B1R antagonism human, read-out: B1R Ant. h [10 μM] % Inhibition. The format is cell-based. The essentials:
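Cells were dye-loaded with Fluo-4 plus probenecid, then test substances added and Ca2+ influx compared with agonist control for % activation. After 10-20 min, EC80 agonist (Lys-Des-Arg9-bradykinin human; Des-Arg9-bradykinin rat) was applied; suppression gave % inhibition and IC50 values.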

Setting [4] is: test concentration of 1 μM, read-out: μ (binding on the μ opioid receptor, % inhibition).
Where [5] appears, read: test concentration of 10 μM, read-out: 5-HT (inhibition of reuptake of serotonin, % inhibition).
The mark [6] stands for this setting: test concentration of 10 μM, 10 µM.
Setting [7] is: test concentration of 1 μM, 1 µM.

Read-outs that look alike come from different tables or passages of the source.

T1 sequence (P35372 whole entry): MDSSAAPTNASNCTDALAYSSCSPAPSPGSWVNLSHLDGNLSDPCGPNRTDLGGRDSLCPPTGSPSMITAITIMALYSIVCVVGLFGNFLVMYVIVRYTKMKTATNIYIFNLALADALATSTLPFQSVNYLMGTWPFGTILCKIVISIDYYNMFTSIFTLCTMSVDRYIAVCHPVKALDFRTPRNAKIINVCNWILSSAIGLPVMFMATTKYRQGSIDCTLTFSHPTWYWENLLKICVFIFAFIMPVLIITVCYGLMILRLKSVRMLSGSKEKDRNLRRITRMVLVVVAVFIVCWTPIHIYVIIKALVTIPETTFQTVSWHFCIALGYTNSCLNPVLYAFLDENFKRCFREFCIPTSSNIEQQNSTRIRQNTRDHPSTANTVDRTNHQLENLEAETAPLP
T2 sequence (P31652 whole entry): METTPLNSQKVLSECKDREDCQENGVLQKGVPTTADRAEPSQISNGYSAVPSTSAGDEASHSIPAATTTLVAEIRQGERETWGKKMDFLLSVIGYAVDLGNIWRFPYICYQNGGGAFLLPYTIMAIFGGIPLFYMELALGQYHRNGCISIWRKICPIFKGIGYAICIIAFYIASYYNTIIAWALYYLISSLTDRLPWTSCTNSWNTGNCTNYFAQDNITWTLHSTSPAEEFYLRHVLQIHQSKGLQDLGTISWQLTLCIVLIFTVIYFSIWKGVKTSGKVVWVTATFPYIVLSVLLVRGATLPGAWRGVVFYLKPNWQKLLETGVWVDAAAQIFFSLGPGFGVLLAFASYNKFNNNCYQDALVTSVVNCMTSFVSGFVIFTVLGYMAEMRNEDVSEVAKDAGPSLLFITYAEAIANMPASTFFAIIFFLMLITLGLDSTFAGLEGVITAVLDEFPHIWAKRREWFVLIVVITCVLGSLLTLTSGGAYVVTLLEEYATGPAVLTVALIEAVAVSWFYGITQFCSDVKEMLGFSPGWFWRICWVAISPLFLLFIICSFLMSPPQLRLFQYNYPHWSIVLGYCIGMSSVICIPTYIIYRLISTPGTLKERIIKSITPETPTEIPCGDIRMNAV

As to `CN(Cc1ccccc1)C(c1ccccc1)C1CCC(NC(=O)COCCN(C)S(=O)(=O)c2c(Cl)cc(Cl)cc2Cl)CC1` (stereo not drawn) [Example 599, N-{4-[(benzylmethylamino)-phenylmethyl]-cyclohexyl}-2-{2-[methyl-(2,4,6-trichlorobenzenesulfonyl)-amino]-ethoxy}-acetamide], the inhibition at 1 µM in test [1] (1.5 h, Table 2, test concentration 1 μM, read-out: μ receptor) stood at 91%. The inhibition at 10 µM in test [2] (Table 2, test concentration 10 μM, read-out: 5-HT reuptake) was 33%; in test [3], -6%. On to `CN(C)C(c1cccs1)C1CCC(CCNC(=O)COCCN(C)S(=O)(=O)c2c(F)c(F)c(F)c(F)c2F)CC1` (stereo not drawn) [Example 465], for which the “μ (binding on the μ opioid receptor, % inhibition)” value in test [1] (test concentration of 1 μM) worked out at 48%. The “5-HT (inhibition of reuptake of serotonin, % inhibition)” value in test [2] (test concentration of 10 μM) turned out to be 72%. Also, in test [3] (B1R antagonism human), the “B1R Ant. h [10 μM] % Inhibition” value is −3%. As for `CC(Oc1ccccc1)C(=O)NCC1CCC(C(c2ccc(F)cc2)N(C)C)CC1` (stereo not drawn) [Example 236], the “μ (binding on the μ opioid receptor, % inhibition)” value in test [1] (test concentration of 1 μM) is 81%. The “5-HT (inhibition of reuptake of serotonin, % inhibition)” value in test [2] (test concentration of 10 μM) is 63%.

`COc1ccc(S(=O)(=O)N2CCCCC2COCC(=O)NC2CCC(C(c3ccccc3)N(C)C)CC2)c(OC)c1` (stereo not drawn) [Example 187, 2-((1-(2,4-dimethoxyphenylsulfonyl)piperidin-2-yl)methoxy)-N-(4-((dimethylamino)(phenyl)methyl)cyclohexyl)acetamide]: in test [1] (setting [4]), the inhibition at 1 µM is 79%. In addition, the inhibition at 10 µM in test [2] (setting [5]) was 81%; in test [3], -6%.

For the molecule `CC(Oc1ccccc1)C(=O)NCC1CCC(C(c2cccc(F)c2)N(C)C)CC1` (stereo not drawn) [Example 79, N-((4-((dimethylamino)(3-fluorophenyl)methyl)cyclohexyl)methyl)-2-phenoxypropanamide], in test [2] (setting [6]), the “5-HT (inhibition of reuptake of serotonin, % inhibition)” value is recorded as 64%. Consider `CN(C)C(c1ccccc1)C1CCC(CCNC(=O)COCc2ccccc2)CC1` (stereo not drawn) [Example 134, 2-(benzyloxy)-N-(2-(4-((dimethylamino)(phenyl)-methyl)cyclohexyl)ethyl)acetamide], for which the inhibition at 10 µM in test [2] (setting [5]) stood at 67%. Take `CC(Oc1ccccc1)C(=O)NCCC1CCC(C(c2cccs2)N(C)C)CC1` (stereo not drawn) [Example 315]: in test [1] (test concentration of 1 μM), the “μ (binding on the μ opioid receptor, % inhibition)” value was found to be 72%. Besides, in test [2] (test concentration of 10 μM), the “5-HT (inhibition of reuptake of serotonin, % inhibition)” value came to 61%. In the case of `CC(Oc1ccccc1)C(=O)NCC1CCC(C(c2ccc(Cl)cc2)N(C)C)CC1` (single isomer, unassigned) [Example 238], in test [1] (test concentration of 1 μM), the “μ (binding on the μ opioid receptor, % inhibition)” value is 81%. Moreover, the “5-HT (inhibition of reuptake of serotonin, % inhibition)” value in test [2] (setting [6]) is 38%.

Regarding `CC(Oc1ccccc1)C(=O)NCCC1CCC(C(c2ccccc2)N(C)C)CC1` (stereo not drawn) [Example 270], the “μ (binding on the μ opioid receptor, % inhibition)” value in test [1] (test concentration of 1 μM) turned out to be 77%. In addition, the “5-HT (inhibition of reuptake of serotonin, % inhibition)” value in test [2] (test concentration of 10 μM) is on record as 73%. On the same counts, the results for `CN(C)C(c1ccc(Cl)cc1)C1CCC(CCNC(=O)COCc2ccccc2)CC1` (stereo not drawn) [Example 482] are 47% and 55%. On the same counts, the results for `CN(C)C(CCc1ccccc1)C1CCC(NC(=O)COCc2ccccc2)CC1` (stereo not drawn) [Example 582] are 9% and 75%. With `CN(C)C(c1ccccc1)C1CCC(NC(=O)COc2ccc(Cl)cc2)CC1` (stereo not drawn) [Example 316], the “μ (binding on the μ opioid receptor, % inhibition)” value in test [1] (test concentration of 1 μM) was found to be 72%. The “5-HT (inhibition of reuptake of serotonin, % inhibition)” value in test [2] (test concentration of 10 μM) is on record as 59%. On the same counts, the results for `CC(Oc1ccccc1)C(=O)NCCC1CCC(C(c2ccc(F)cc2)N(C)C)CC1` (stereo not drawn) [Example 455] are 51% and 74%.

In the case of `CC(Oc1ccccc1)C(=O)NCC1CCC(C(c2cccc(F)c2)N(C)C)CC1` (stereo not drawn) [Example 108, N-((4-((dimethylamino)(3-fluorophenyl)methyl)cyclohexyl)methyl)-2-phenoxypropanamide], the inhibition at 1 µM in test [1] (setting [4]) is 91%. Besides, in test [2] (setting [5]), the inhibition at 10 µM turned out to be 63%.

Turning to `CC(Oc1ccccc1)C(=O)NC1CCC(C(c2cccc(F)c2)N(C)C)CC1` (stereo not drawn) [Example 153, N-(4-((dimethylamino)(3-fluorophenyl)methyl)cyclohexyl)-2-phenoxypropanamide], the inhibition at 10 µM in test [2] (setting [5]) came out at 27%. Turning to `CC(Oc1ccccc1)C(=O)NCC1CCC(C(c2cccc(F)c2)N(C)C)CC1` (stereo not drawn) [Example 122, N-((4-((dimethylamino)(3-fluorophenyl)methyl)cyclohexyl)methyl)-2-phenoxypropanamide], in test [2] (setting [6]), the “5-HT (inhibition of reuptake of serotonin, % inhibition)” value is reported as 57%. In the case of `CC(Oc1ccccc1)C(=O)NC1CCC(C(c2ccccc2)N(C)C)CC1` (stereo not drawn) [Example 181, N-(4-((dimethylamino)(phenyl)methyl)cyclohexyl)-2-phenoxypropanamide], the inhibition at 10 µM in test [2] (setting [5]) was determined as 46%.

On to `CN(C)C(CCc1ccccc1)C1CCC(NC(=O)COc2ccc(Cl)cc2)CC1` (stereo not drawn) [Example 564], for which the “μ (binding on the μ opioid receptor, % inhibition)” value in test [1] (test concentration of 1 μM) worked out at 24%. In test [2] (test concentration of 10 μM), the “5-HT (inhibition of reuptake of serotonin, % inhibition)” value is given as 47%.

With `COC(=O)C(=O)NCCC1CCC(C(c2ccccc2)N(C)C)CC1` (stereo not drawn) [Example 579], the “μ (binding on the μ opioid receptor, % inhibition)” value in test [1] (test concentration of 1 μM) is given as 11%. For the same molecule, the “5-HT (inhibition of reuptake of serotonin, % inhibition)” value in test [2] (test concentration of 10 μM) was 59%.

With `CC(=O)OC(C(=O)NCC1CCC(C(c2ccc(Cl)cc2)N(C)C)CC1)c1ccccc1` (stereo not drawn) [Example 360], in test [1] (test concentration of 1 μM), the “μ (binding on the μ opioid receptor, % inhibition)” value is 66%. Besides, in test [2] (test concentration of 10 μM), the “5-HT (inhibition of reuptake of serotonin, % inhibition)” value was 15%. In the case of `CC(Oc1ccccc1)C(=O)NC1CCC(C(CCc2ccccc2)N(C)C)CC1` (stereo not drawn) [Example 577], the “μ (binding on the μ opioid receptor, % inhibition)” value in test [1] (setting [7]) was determined as 14%. The “5-HT (inhibition of reuptake of serotonin, % inhibition)” value in test [2] (setting [6]) was 16%. With `CC(Oc1ccccc1)C(=O)NC1CCC(C(CCc2ccccc2)N(C)C)CC1` (stereo not drawn) [Example 545], the “μ (binding on the μ opioid receptor, % inhibition)” value in test [1] (setting [7]) is reported as 30%. For the same molecule, the “5-HT (inhibition of reuptake of serotonin, % inhibition)” value in test [2] (setting [6]) was 52%. `CC(Oc1ccccc1)C(=O)NCC1CCC(C(c2ccc(Cl)cc2)N(C)C)CC1` (single isomer, unassigned) [Example 237]: in test [1] (test concentration of 1 μM), the “μ (binding on the μ opioid receptor, % inhibition)” value is given as 81%. Besides, the “5-HT (inhibition of reuptake of serotonin, % inhibition)” value in test [2] (setting [6]) turned out to be 52%. For `CN(C)C(c1cccc(F)c1)C1CCC(NC(=O)COCc2ccccc2)CC1` (stereo not drawn) [Example 353], the “μ (binding on the μ opioid receptor, % inhibition)” value in test [1] (test concentration of 1 μM) came to 67%. Moreover, the “5-HT (inhibition of reuptake of serotonin, % inhibition)” value in test [2] (test concentration of 10 μM) is listed as 60%. On the same counts, the results for `CCOC(=O)C(=O)NCC1CCC(C(CCc2ccccc2)N(C)C)CC1` (stereo not drawn) [Example 421] are 57% and 26%.

Regarding `CN(C)C(c1ccccc1)C1CCC(NC(=O)COCc2ccccc2)CC1` (stereo not drawn) [Example 245], in test [1] (test concentration of 1 μM), the “μ (binding on the μ opioid receptor, % inhibition)” value came to 80%. Besides, the “5-HT (inhibition of reuptake of serotonin, % inhibition)” value in test [2] (test concentration of 10 μM) is 59%. On the same counts, the results for `CN(C)C(c1cccc(F)c1)C1CCC(NC(=O)COc2ccc(Cl)cc2)CC1` (stereo not drawn) [Example 505] are 42% and 59%. Take `CC(Oc1ccccc1)C(=O)NCC1CCC(C(c2cccs2)N(C)C)CC1` (stereo not drawn) [Example 2, N-((4-((dimethylamino)(thiophen-2-yl)methyl)cyclohexyl)methyl)-2-phenoxypropanamide]: the inhibition at 10 µM in test [2] (setting [5]) stood at 69%. For the molecule `CC(Oc1ccccc1)C(=O)NCC1CCC(C(CCc2ccccc2)N(C)C)CC1` (stereo not drawn) [Example 495], the “μ (binding on the μ opioid receptor, % inhibition)” value in test [1] (test concentration of 1 μM) was 44%. For the same molecule, the “5-HT (inhibition of reuptake of serotonin, % inhibition)” value in test [2] (test concentration of 10 μM) was determined as 48%.

In the case of `CN(C)C(c1ccc(F)cc1)C1CCC(NC(=O)COCc2ccccc2)CC1` (stereo not drawn) [Example 529], the “μ (binding on the μ opioid receptor, % inhibition)” value in test [1] (test concentration of 1 μM) came to 37%. Besides, the “5-HT (inhibition of reuptake of serotonin, % inhibition)” value in test [2] (test concentration of 10 μM) was determined as 59%.
